According to patent US20160046618A1, “Cyclopropyl Fused Thiazin-2-Amine Compounds as Beta-Secretase Inhibitors and Methods of Use” (AMGEN INC., priority 2014, published 2016):

Experiments:
Recombinant Cat D = Recombinant Cat D (Homo sapiens (Human), UniProt P07339); assay: In vitro enzymatic Cathepsin D (Cat D) FRET assay; type: biochemical; conditions: read-out: IC50 IP (μM) CatD
Procedure, shortened: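 Human Cat D expressed in CHO cells was incubated for one hour in 0.05 M citrate pH 3.5, 5 mM CHAPS, 10% DMSO final, with 20 nM quenched FRET peptide substrate. Reactions were stopped with Tris buffer raising pH to neutrality. Cleavage was read as fluorescence at excitation 500 nm, emission 580 nm.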

human recombinant BACE1 = human recombinant BACE1 (Homo sapiens (Human), UniProt P56817); assay: In vitro enzymatic BACE1 FRET assay; type: biochemical; conditions: read-out: IC50 IP (μM) BACE1 enzyme
Procedure, shortened: (§1)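 Protease purified by Ni-NTA chromatography; start with FRET substrate (50 nM); incubate 1 h; quench with Tris to neutral pH; read fluorescence ex 488 / em 590 nm.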

[1] = test system: Aβ40 in conditioned medium of cells stably expressing Amyloid Precursor Protein (APP); assay: In vitro BACE-1 cell-based assay (Aβ40 sandwich ELISA); conditions: read-out: IC50 IP (μM) BACE1 cell
Procedure, shortened: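 APP-expressing cells treated 24 h at 37 °C with compound in 10-point dose response (top 100 μM or 10 μM, 0.1% DMSO final). Secreted Aβ40 in conditioned medium quantified by sandwich ELISA (pAb40 capture, biotinylated 6E10 detection, time-resolved europium fluorescence); IC50 from percent inhibition versus concentration.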

human recombinant BACE2 = human recombinant BACE2 (Homo sapiens (Human), UniProt Q9Y5Z0); assay: In vitro enzymatic BACE2 FRET assay; type: biochemical; conditions: read-out: IC50 IP (μM) BACE2 enzyme
Procedure, shortened: as §1

human recombinant BACE2, sequence (Q9Y5Z0 63-518): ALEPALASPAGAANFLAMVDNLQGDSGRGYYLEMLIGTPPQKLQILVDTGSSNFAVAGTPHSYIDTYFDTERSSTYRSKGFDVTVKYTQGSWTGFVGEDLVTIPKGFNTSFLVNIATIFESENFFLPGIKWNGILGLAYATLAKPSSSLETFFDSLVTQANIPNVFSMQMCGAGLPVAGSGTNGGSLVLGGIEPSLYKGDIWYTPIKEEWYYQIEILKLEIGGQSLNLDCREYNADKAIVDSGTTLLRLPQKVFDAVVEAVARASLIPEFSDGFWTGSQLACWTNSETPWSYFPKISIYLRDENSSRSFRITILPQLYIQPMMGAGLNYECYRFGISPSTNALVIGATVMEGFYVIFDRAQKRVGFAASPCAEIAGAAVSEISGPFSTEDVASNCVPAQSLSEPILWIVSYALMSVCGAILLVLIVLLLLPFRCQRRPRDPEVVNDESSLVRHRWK
Recombinant Cat D, sequence (P07339 65-412): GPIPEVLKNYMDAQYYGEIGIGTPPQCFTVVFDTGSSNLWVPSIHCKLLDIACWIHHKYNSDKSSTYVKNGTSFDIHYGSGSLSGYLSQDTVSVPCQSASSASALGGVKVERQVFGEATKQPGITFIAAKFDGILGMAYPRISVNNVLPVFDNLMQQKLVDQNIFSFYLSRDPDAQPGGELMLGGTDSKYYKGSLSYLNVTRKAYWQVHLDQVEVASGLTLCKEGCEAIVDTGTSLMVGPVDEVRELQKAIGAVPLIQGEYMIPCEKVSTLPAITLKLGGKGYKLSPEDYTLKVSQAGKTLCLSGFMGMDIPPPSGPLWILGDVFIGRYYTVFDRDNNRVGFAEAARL
human recombinant BACE1, sequence (P56817 46-501): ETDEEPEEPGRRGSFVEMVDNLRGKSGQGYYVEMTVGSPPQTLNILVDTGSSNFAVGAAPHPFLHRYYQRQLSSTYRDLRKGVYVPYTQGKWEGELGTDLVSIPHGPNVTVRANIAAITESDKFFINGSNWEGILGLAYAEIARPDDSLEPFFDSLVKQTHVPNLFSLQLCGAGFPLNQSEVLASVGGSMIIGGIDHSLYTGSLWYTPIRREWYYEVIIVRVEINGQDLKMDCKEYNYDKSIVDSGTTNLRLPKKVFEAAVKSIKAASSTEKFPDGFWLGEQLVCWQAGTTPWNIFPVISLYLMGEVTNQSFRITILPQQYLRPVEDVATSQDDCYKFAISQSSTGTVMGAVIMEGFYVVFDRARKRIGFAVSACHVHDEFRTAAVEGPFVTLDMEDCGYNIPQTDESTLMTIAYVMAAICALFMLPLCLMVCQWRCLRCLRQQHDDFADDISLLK

With `COC[C@]12C[C@H]1[C@@](C)(c1cc(NC(=O)c3ncc(O[C@H](C)c4ncco4)cc3C)cc(F)c1F)N=C(N)S2` [Example 688] the IC50 (Recombinant Cat D) was 1320 µM, the IC50 (human recombinant BACE1) was 0.548 µM and the IC50 [1] was 3.89 µM. For the same compound, the IC50 (human recombinant BACE2) was 0.709 µM.

`C#CCOc1cnc(C(=O)Nc2ccc(F)c([C@@]3(C)N=C(N)S[C@@]4(CF)C[C@H]43)c2)c(C)c1` [Example 690, N-(3-((1S,5S,6S)-3-amino-1-(fluoromethyl)-5-methyl-2-thia-4-azabicyclo[4.1.0]hept-3-en-5-yl)-4-fluorophenyl)-3-methyl-5-(2-propyn-1-yloxy)-2-pyridinecarboxamide] showed an IC50 (Recombinant Cat D) of 675 µM, an IC50 (human recombinant BACE1) of 0.00418 µM and an IC50 [1] of 0.00779 µM. It also gave an IC50 (human recombinant BACE2) of 0.026 µM.

`C#CCOc1cnc(C(=O)Nc2cc(F)c(F)c([C@@]3(C)N=C(N)S[C@@]4(CF)C[C@H]43)c2)c(Cl)c1` [Example 691, N-(3-((1S,5S,6S)-3-amino-1-(fluoromethyl)-5-methyl-2-thia-4-azabicyclo[4.1.0]hept-3-en-5-yl)-4,5-difluorophenyl)-3-chloro-5-(2-propyn-1-yloxy)-2-pyridinecarboxamide] gave an IC50 (Recombinant Cat D) of 728 µM, an IC50 (human recombinant BACE1) of 0.000673 µM and an IC50 [1] of 0.00563 µM. For the same compound, the IC50 (human recombinant BACE2) was 0.0231 µM.

For `C[C@]1(c2cc(NC(=O)c3ccc(OCC(F)(F)F)cn3)cc(F)c2F)N=C(N)S[C@@]2(CF)C[C@H]21` [Example 692, N-(3-((1S,5S,6S)-3-amino-1-(fluoromethyl)-5-methyl-2-thia-4-azabicyclo[4.1.0]hept-3-en-5-yl)-4,5-difluorophenyl)-5-(2,2,2-trifluoroethoxy)-2-pyridinecarboxamide], the IC50 (Recombinant Cat D) was > 400 µM, the IC50 (human recombinant BACE1) was 0.0053 µM and the IC50 [1] was 0.0453 µM. For the same compound, the IC50 (human recombinant BACE2) was 0.29 µM.

`C[C@]1(c2cc(NC(=O)c3ncc(OCC(F)(F)F)cc3Cl)cc(F)c2F)N=C(N)S[C@@]2(CF)C[C@H]21` [Example 693, N-(3-((1S,5S,6S)-3-amino-1-(fluoromethyl)-5-methyl-2-thia-4-azabicyclo[4.1.0]hept-3-en-5-yl)-4,5-difluorophenyl)-3-chloro-5-(2,2,2-trifluoroethoxy)-2-pyridinecarboxamide] was tested, and the IC50 (Recombinant Cat D) was 1200 µM, the IC50 (human recombinant BACE1) was 0.00294 µM and the IC50 [1] was 0.0489 µM. It also gave an IC50 (human recombinant BACE2) of 0.246 µM.

In the case of `C[C@]1(c2cc(NC(=O)c3ccc(OCC(F)(F)F)cn3)cc(F)c2F)N=C(N)S[C@@]2(C(F)F)C[C@@H]12` [Example 695, N-(3-((1S,5S,6S)-3-amino-1-(difluoromethyl)-5-methyl-2-thia-4-azabicyclo[4.1.0]hept-3-en-5-yl)-4,5-difluorophenyl)-5-(2,2,2-trifluoroethoxy)-2-pyridinecarboxamide], the IC50 (Recombinant Cat D) is reported as > 400 µM, the IC50 (human recombinant BACE1) is reported as 0.00272 µM and the IC50 [1] is reported as 0.0883 µM. It also gave an IC50 (human recombinant BACE2) of 0.263 µM.

Compound `C[C@]1(c2cc(NC(=O)c3ccc(OCC(F)(F)F)cn3)ccc2F)N=C(N)S[C@@]2(C(F)F)C[C@@H]12` [Example 696, N-(3-((1S,5S,6S)-3-amino-1-(difluoromethyl)-5-methyl-2-thia-4-azabicyclo[4.1.0]hept-3-en-5-yl)-4-fluorophenyl)-5-(2,2,2-trifluoroethoxy)-2-pyridinecarboxamide] has an IC50 (Recombinant Cat D) of 846 µM, an IC50 (human recombinant BACE1) of 0.0062 µM and an IC50 [1] of 0.0707 µM. The IC50 (human recombinant BACE2) was 0.324 µM.

`C[C@]1(c2cc(NC(=O)c3ccc(OCC(F)(F)F)cn3)cc(F)c2F)N=C(N)S[C@@]2(C(=O)N3CCCC3)C[C@H]21` [Example 699, N-(3-((1S,5S,6S)-3-amino-5-methyl-1-(1-pyrrolidinylcarbonyl)-2-thia-4-azabicyclo[4.1.0]hept-3-en-5-yl)-4,5-difluorophenyl)-5-(2,2,2-trifluoroethoxy)-2-pyridinecarboxamide] gave an IC50 (Recombinant Cat D) of 138 µM, an IC50 (human recombinant BACE1) of 0.00106 µM and an IC50 [1] of 0.0352 µM. It also gave an IC50 (human recombinant BACE2) of 0.0524 µM.

`CNC(=O)[C@]12C[C@H]1[C@@](C)(c1cc(NC(=O)c3ccc(OCC(F)(F)F)cn3)cc(F)c1F)N=C(N)S2` [Example 700, (1S,5S,6S)-3-amino-5-(2,3-difluoro-5-(((5-(2,2,2-trifluoroethoxy)-2-pyridinyl)carbonyl)amino)phenyl)-N,5-dimethyl-2-thia-4-azabicyclo[4.1.0]hept-3-ene-1-carboxamide] showed an IC50 (Recombinant Cat D) of 569 µM, an IC50 (human recombinant BACE1) of 0.00115 µM and an IC50 [1] of 0.00826 µM. It also gave an IC50 (human recombinant BACE2) of 0.224 µM.

`CNC(=O)[C@]12C[C@H]1[C@@](C)(c1cc(NC(=O)c3cnc(OCC(F)(F)F)cn3)cc(F)c1F)N=C(N)S2` [Example 701, (1S,5S,6S)-3-amino-5-(2,3-difluoro-5-(((5-(2,2,2-trifluoroethoxy)-2-pyrazinyl)carbonyl)amino)phenyl)-N,5-dimethyl-2-thia-4-azabicyclo[4.1.0]hept-3-ene-1-carboxamide] was tested, and the IC50 (Recombinant Cat D) was 587 µM, the IC50 (human recombinant BACE1) was 0.000943 µM and the IC50 [1] was 0.00309 µM. The IC50 (human recombinant BACE2) was 0.0782 µM.

Work on `CNC(=O)[C@]12C[C@H]1[C@@](C)(c1cc(NC(=O)c3ncc(OCC(F)(F)F)cc3C)cc(F)c1F)N=C(N)S2` [Example 702, (1S,5S,6S)-3-amino-5-(2,3-difluoro-5-(((3-methyl-5-(2,2,2-trifluoroethoxy)-2-pyridinyl)carbonyl)amino)phenyl)-N,5-dimethyl-2-thia-4-azabicyclo[4.1.0]hept-3-ene-1-carboxamide] yielded an IC50 (Recombinant Cat D) of 362 µM, an IC50 (human recombinant BACE1) of 0.000986 µM and an IC50 [1] of 0.0344 µM. It also gave an IC50 (human recombinant BACE2) of 0.269 µM.

For `C[C@]1(c2cc(Nc3ncnc4cc(C#N)cnc34)ccc2F)N=C(N)S[C@]2(CO)[C@H]1C2(F)F` [Example 703, 4-((3-((1S,5S,6R)-3-amino-7,7-difluoro-1-(hydroxymethyl)-5-methyl-2-thia-4-azabicyclo[4.1.0]hept-3-en-5-yl)-4-fluorophenyl)amino)pyrido[3,2-d]pyrimidine-7-carbonitrile], the IC50 (Recombinant Cat D) was 340 µM, the IC50 (human recombinant BACE1) was 0.00594 µM and the IC50 [1] was 0.0153 µM. The IC50 (human recombinant BACE2) was 0.011 µM.

Compound `C[C@]1(c2cc(NC(=O)c3ccc(Cl)cn3)ccc2F)N=C(N)S[C@]2(CO)[C@H]1C2(F)F` [Example 704, N-(3-((1S,5S,6R)-3-amino-7,7-difluoro-1-(hydroxymethyl)-5-methyl-2-thia-4-azabicyclo[4.1.0]hept-3-en-5-yl)-4-fluorophenyl)-5-chloro-2-pyridinecarboxamide] has an IC50 (Recombinant Cat D) of 141 µM, an IC50 (human recombinant BACE1) of 0.002 µM and an IC50 [1] of 0.00557 µM. For the same compound, the IC50 (human recombinant BACE2) was < 0.00203 µM.

`C[C@]1(c2cc(Nc3nccc4nc(OCc5cocn5)cnc34)ccc2F)N=C(N)S[C@]2(CO)[C@H]1C2(F)F` [Example 706, ((1S,5S,6R)-3-amino-7,7-difluoro-5-(2-fluoro-5-((2-(1,3-oxazol-4-ylmethoxy)pyrido[3,4-b]pyrazin-5-yl)amino)phenyl)-5-methyl-2-thia-4-azabicyclo[4.1.0]hept-3-en-1-yl)methanol] showed an IC50 (Recombinant Cat D) of 354 µM, an IC50 (human recombinant BACE1) of 0.00292 µM and an IC50 [1] of 0.0086 µM. The IC50 (human recombinant BACE2) was 0.0294 µM.

`COC[C@@]12SC(N)=N[C@](C)(c3cc(Nc4ncnc5cc(C#N)cnc45)ccc3F)[C@@H]1C2(F)F` [Example 709, 4-((3-((1S,5S,6R)-3-amino-7,7-difluoro-1-(methoxymethyl)-5-methyl-2-thia-4-azabicyclo[4.1.0]hept-3-en-5-yl)-4-fluorophenyl)amino)pyrido[3,2-d]pyrimidine-7-carbonitrile] showed an IC50 (Recombinant Cat D) of 148 µM, an IC50 (human recombinant BACE1) of 0.0092 µM and an IC50 [1] of 0.104 µM. For the same compound, the IC50 (human recombinant BACE2) was 0.0257 µM.
